Laboratory results taken from patent US8871767B2, “2-arylimidazo[1,2-B]pyridazine, 2-phenylimidazo[1,2-A]pyridine, and 2-phenylimidazo[1,2-A]pyrazine derivatives” (Hengrui (USA) Ltd., priority 2010, dated 2014).
Read-outs that look alike come from different tables or passages of the source.

Tested on: Hedgehog pathway activation (GLi-luciferase reporter) in Shh Light II reporter cells
Test: Hedgehog pathway activation on Shh Light II reporter cells measured by luciferase activity
Type: cell-based
Conditions: hShh activation, read-out: Shh (IC50, inhibition of Hedgehog pathway activation)
Procedure, shortened: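 Shh Light II reporter cells carrying a hedgehog-responsive GLi-luciferase reporter were stimulated either with 500 nM SAG, a direct Smoothened agonist, or with conditioned media containing human Sonic Hedgehog (hShh). Test compounds were evaluated for blocking this pathway activation, quantified by luciferase activity. Cell viability was monitored in parallel with the Celltiter-Blue® assay.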

| Compound | IC50 (Mus musculus, Shh Light II) [nM] | IC50 [nM] |
| --- | --- | --- |
| Cc1ccc(-c2cn3nc(-c4cccc(N)n4)ccc3n2)cc1NC(=O)C(C)(C)C [compound 575, N-(5-(6-(6-aminopyridin-2-yl)imidazo[1,2-b]pyridazin-2-yl)-2-methylphenyl)pivalamide] | 599 | – |
| Cc1ccc(-c2cn3nc(-c4ccc(N)cc4)ccc3n2)cc1NC(=O)C(C)(C)C [compound 550] | 418 | – |
| COc1ccc2nc(-c3ccc(C)c(NC(=O)c4cccc(C=CC(=O)NO)c4)c3)cn2n1 [compound 616] | > 10000 | – |
| COC(=O)CCCCCCN(C(=O)C(C)(C)C)c1cc(-c2cn3nc(-c4cccnc4C(F)(F)F)ccc3n2)ccc1C [compound 516, methyl 7-(N-(2-methyl-5-(6-(2-(trifluoromethyl)pyridin-3-yl)imidazo[1,2-b]pyridazin-2-yl)phenyl)pivalamido)heptanoate] | 1710 | – |
| CCOC(=O)C=Cc1ccc(-c2ccc3nc(-c4ccc(C)c(NC(=O)C(C)(C)C)c4)cn3n2)cc1 [compound 552] | 356 | – |
| Cc1ccc(-c2cn3nc(-c4cccnc4C(F)(F)F)ccc3n2)cc1NC(=O)CCCCCCC(=O)O [compound 553, 8-((2-methyl-5-(6-(2-(trifluoromethyl)pyridin-3-yl)imidazo[1,2-b]pyridazin-2-yl)phenyl)amino)-8-oxooctanoic acid] | – | 701 |
| Cc1ccc(-c2cn3nc(-c4cc(C(N)=NO)ccc4C)ccc3n2)cc1NC(=O)C(C)(C)C [compound 577] | 63 | – |
| Cc1ccc(-c2cn3nc(-c4ccc(NC(=O)CCCCCCC(=O)O)cc4)ccc3n2)cc1NC(=O)C(C)(C)C [compound 561] | 2300 | – |
| CCc1ccc(-c2cn3nc(-c4ccc(C(F)(F)F)nc4)ccc3n2)cc1NC(=O)C(C)(C)C [Example 338, N-(2-ethyl-5-(6-(6-(trifluoromethyl)pyridin-3-yl)imidazo[1,2-b]pyridazin-2-yl)phenyl)pivalamide] | 398 | – |
| Cc1ccc(-c2cn3nc(Cl)ccc3n2)cc1NC(=O)C(C)(C)C#N [compound 620] | 3200 | – |
| Cc1ccc(-c2cn3nc(-c4ccc(C(=O)N(C)C)cc4)ccc3n2)cc1NC(=O)C(C)(C)C [compound 524] | 479 | – |
| Cc1ccc(-c2cn3nc(-c4cccc(CO)n4)ccc3n2)cc1NC(=O)C(C)(C)C [Example 460, N-(5-(6-(6-(hydroxymethyl)pyridin-2-yl)imidazo[1,2-b]pyridazin-2-yl)-2-methylphenyl)pivalamide] | 1120 | – |
| Cc1ccc(-c2cn3nc(-c4cccc(O)c4C(F)(F)F)ccc3n2)cc1NC(=O)C(C)(C)C [Example 398, N-(5-(6-(3-hydroxy-2-(trifluoromethyl)phenyl)imidazo[1,2-b]pyridazin-2-yl)-2-methylphenyl)pivalamide] | 681 | – |
| COC(=O)c1ccc(CNc2ccc3nc(-c4ccc(C)c(NC(=O)C(C)(C)C)c4)cn3n2)cc1 [compound 592] | 443 | – |
| CCOC(=O)CCCOc1ccc(C(F)(F)F)c(-c2ccc3nc(-c4ccc(C)c(NC(=O)C(C)(C)C)c4)cn3n2)c1 [Example 434, ethyl 4-(3-(2-(4-methyl-3-pivalamidophenyl)imidazo[1,2-b]pyridazin-6-yl)-4-(trifluoromethyl)phenoxy)butanoate] | 353 | – |
| CCOC(=O)CC(=O)Nc1cc(-c2cn3nc(-c4cccnc4C(F)(F)F)ccc3n2)ccc1C [Example 435, ethyl 3-(2-methyl-5-(6-(2-(trifluoromethyl)pyridin-3-yl)imidazo[1,2-b]pyridazin-2-yl)phenylamino)-3-oxopropanoate] | 1270 | – |
| Cc1ccc(-c2cn3nc(-c4ccc(C=CC(=O)O)cc4)ccc3n2)cc1NC(=O)C(C)(C)C [compound 555] | 346 | – |
| Cc1ccc(-c2cn3nc(-c4ccc(S(N)(=O)=O)cc4)ccc3n2)cc1NC(=O)C(C)(C)C [compound 534] | 1450 | – |
| Cc1ccc(-c2cn3nc(NC(=O)c4ncccc4Cl)ccc3n2)cc1NC(=O)C(C)(C)C [compound 612] | 78 | – |
| COc1ccc(F)c(-c2ccc3nc(-c4ccc(C(F)(F)F)c(NC(=O)C(C)(C)C)c4)cn3n2)c1 [Example 228, N-(5-(6-(2-fluoro-5-methoxyphenyl)imidazo[1,2-b]pyridazin-2-yl)-2-(trifluoromethyl)phenyl)pivalamide] | 325 | – |
| Cc1ccc(-c2cn3nc(-c4ccc(C(=O)NO)cc4)ccc3n2)cc1NC(=O)C(C)(C)C [compound 588] | 1050 | – |

| Compound | IC50 (Mus musculus, Shh Light II) [nM] | IC50 [nM] |
| --- | --- | --- |
| CCOC(=O)C=Cc1cccc(S(=O)(=O)Nc2ccc3nc(-c4ccc(C)c(NC(=O)C(C)(C)C)c4)cn3n2)c1 [compound 603] | 8180 | – |
| CC(C)(C)C(=O)Nc1cc(-c2cn3nc(-c4cccnc4N)ccc3n2)ccc1C(F)(F)F [Example 344, N-(5-(6-(2-aminopyridin-3-yl)imidazo[1,2-b]pyridazin-2-yl)-2-(trifluoromethyl)phenyl)pivalamide] | 8740 | – |
| Cc1ccc(-c2cn3nc(NC(=O)c4ccccn4)ccc3n2)cc1NC(=O)C(C)(C)C [compound 611] | 49 | – |
| Cc1ccc(-c2cn3nc(C4=CCCC4)ccc3n2)cc1NC(=O)C(C)(C)C [Example 442, N-(5-(6-cyclopentenylimidazo[1,2-b]pyridazin-2-yl)-2-methylphenyl)pivalamide] | 1060 | – |
| Cc1ccc(-c2cn3nc(-c4cccnc4C(F)(F)F)ccc3n2)cc1C(=O)O [Example 481, 2-methyl-5-(6-(2-(trifluoromethyl)pyridin-3-yl)imidazo[1,2-b]pyridazin-2-yl)benzoic acid] | > 10000 | – |
| Cc1ccc(-c2cn3nc(-c4cncc(F)c4)ccc3n2)cc1NC(=O)C(C)(C)C [Example 407, N-(5-(6-(5-fluoropyridin-3-yl)imidazo[1,2-b]pyridazin-2-yl)-2-methylphenyl)pivalamide] | 353 | – |
| CCOC(=O)C=Cc1cccc(S(=O)(=O)Nc2cc(-c3cn4nc(C=CC(=O)OCC)ccc4n3)ccc2C)c1 [compound 608] | 2040 | – |
| COc1ccc2nc(-c3ccc(C)c(NC(=O)c4ccc(S(C)(=O)=O)cc4Cl)c3)cn2n1 [Example 95, 2-chloro-N-(5-(6-methoxyimidazo[1,2-b]pyridazin-2-yl)-2-methylphenyl)-4-(methylsulfonyl)benzamide] | 7860 | – |
| C#Cc1ccc(-c2cn3nc(-c4ccccc4F)ccc3n2)cc1N [Example 320, 2-ethynyl-5-(6-(2-fluorophenyl)imidazo[1,2-b]pyridazin-2-yl)aniline] | 9260 | – |
| CC(C)(C)C(=O)Nc1cc(-c2cn3nc(NC4CCC(O)CC4)ccc3n2)ccc1C(F)(F)F (centres unmarked) [Example 314, N-(5-(6-(4-hydroxycyclohexylamino)imidazo[1,2-b]pyridazin-2-yl)-2-(trifluoromethyl)phenyl)pivalamide] | 346 | – |
| Cc1ccc(-c2cn3nc(-c4ccc(-c5nc(=O)[nH][nH]5)cc4C(F)(F)F)ccc3n2)cc1NC(=O)C(C)(C)C [compound 590] | 456 | – |
| Cc1ccc(-c2cn3nc(-c4c(C)noc4C)ccc3n2)cc1NC(=O)C(C)(C)C [compound 502] | 580 | – |
| Cc1ccc(-c2cn3nc(-c4ccc(NC(=O)CCCCCCC(=O)NO)cc4C(F)(F)F)ccc3n2)cc1NC(=O)C(C)(C)C [compound 530] | 6680 | – |
| Cc1ccc(-c2cn3nc(-c4cccc(F)c4Cl)ccc3n2)cc1NC(=O)C(C)(C)C [compound 619] | 35 | – |
| Cc1nc(-c2ccc(-c3ccc4nc(-c5ccc(C)c(NC(=O)C(C)(C)C)c5)cn4n3)cc2)no1 [compound 549] | 204 | – |
| Cc1ccc(-c2cn3nc(-c4ccc(C(N)=O)nc4)ccc3n2)cc1NC(=O)C(C)(C)C [compound 537] | 734 | – |
| Cc1ccc(-c2cn3nc(-c4ccc(C(=O)O)cc4)ccc3n2)cc1NC(=O)C(C)(C)C [compound 521] | > 10000 | – |
| Cc1ccc(-c2cn3nc(-c4ccc(C(N)=NO)cc4C)ccc3n2)cc1NC(=O)C(C)(C)C [compound 576] | 155 | – |
| Cc1ccc(-c2cn3nc(-c4ccc(C(=O)O)cc4F)ccc3n2)cc1NC(=O)C(C)(C)C [compound 523] | 9630 | – |
| Cc1ccnc(F)c1-c1ccc2nc(-c3ccc(C(F)(F)F)c(NC(=O)C(C)(C)C)c3)cn2n1 [Example 342, N-(5-(6-(2-fluoro-4-methylpyridin-3-yl)imidazo[1,2-b]pyridazin-2-yl)-2-(trifluoromethyl)phenyl)pivalamide] | 409 | – |
